Data from the NIST ThermoML archive (doi:10.1016/j.jct.2010.04.001).
“And” between values parts separate entries of the source, which are not always exact repeats. Equal entries are not always repeated.

Conditions: Crystal, Calculated from knudsen effusion weight loss

O=C(c1ccc[nH]1)C(Cl)(Cl)Cl [2-trichloroacetyl-1H-pyrrole]
Conditions | vapor or sublimation pressure
295.12 K | 0.000103 kPa and 9.92e-05 kPa and 0.000101 kPa
297.17 K | 0.000132 kPa and 0.000129 kPa
299.22 K | 0.000169 kPa and 0.000165 kPa and 0.000162 kPa
301.14 K | 0.000213 kPa and 0.000218 kPa
303.23 K | 0.000274 kPa and 0.000272 kPa and 0.000268 kPa
305.2 K | 0.000344 kPa and 0.000336 kPa and 0.000335 kPa
307.1 K | 0.000434 kPa and 0.00043 kPa and 0.000424 kPa
309.13 K | 0.000539 kPa and 0.000531 kPa and 0.000527 kPa
311.21 K | 0.000674 kPa and 0.000661 kPa and 0.000652 kPa
313.11 K | 0.000861 kPa and 0.000843 kPa and 0.000837 kPa
315.16 K | 0.00106 kPa and 0.001043 kPa and 0.001028 kPa
317.2 K | 0.001327 kPa and 0.001289 kPa and 0.00127 kPa

O=C(c1ccc[nH]1)C(F)(F)F [2-trifluoroacetylpyrrole]
Conditions | vapor or sublimation pressure
263.19 K | 0.000433 kPa and 0.000414 kPa and 0.000406 kPa
264.14 K | 0.00048 kPa and 0.000469 kPa
265.11 K | 0.000533 kPa and 0.000531 kPa
266.12 K | 0.000597 kPa and 0.00064 kPa and 0.000623 kPa
267.12 K | 0.000716 kPa and 0.00069 kPa and 0.00067 kPa
268.12 K | 0.000809 kPa and 0.000796 kPa and 0.000771 kPa
269.11 K | 0.0009 kPa and 0.000894 kPa and 0.000866 kPa
270.11 K | 0.001022 kPa and 0.000993 kPa
271.13 K | 0.001147 kPa and 0.00113 kPa and 0.001101 kPa
